Results: US11767303B2, “Compounds and methods for inhibiting viral replication and methods of treating and preventing flaviviral infections” (priority 2020, dated 2023)
Where two headings read alike, the source gives them in different places.

How the values were obtained:
ZIKV = assay: Viral titer reduction assay, ZIKV in A549 cells; type: cell-based, Zika virus
Method: Viral Titer Reduction Assay. A viral titer reduction assay was used to determine the compounds' effect on DENV2 and ZIKV strains, as described previously. […] Human A549 lung carcinoma cells and human primary neural progenitor cells were used, as described previously. […] All experiments were performed in triplicates.

[1] = target: T1, DENV2 NS2B-NS3 interaction (Dengue virus type 2, UniProt P29990); assay: Split luciferase complementation (SLC) NS2B-NS3 interaction assay; type: binding, Dengue virus serotype 2; conditions: concentration reducing 50% of SLC signal; read-out: IC50-SLC-(DN2)
T1 construct: GST (N); made in house
T1 sequence (P29990 1476-1654): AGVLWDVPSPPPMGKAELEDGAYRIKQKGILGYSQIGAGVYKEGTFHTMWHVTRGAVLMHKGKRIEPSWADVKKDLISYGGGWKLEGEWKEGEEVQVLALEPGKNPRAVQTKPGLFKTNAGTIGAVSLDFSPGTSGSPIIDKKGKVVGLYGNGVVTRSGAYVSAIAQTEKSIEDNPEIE

DENV2 = assay: Viral titer (plaque) reduction assay, DENV2 in A549 cells; type: cell-based, Dengue virus serotype 2
Method: Viral Titer Reduction Assay. A viral titer reduction assay was used to determine the compounds' effect on DENV2 and ZIKV strains, as described previously. […] Human A549 lung carcinoma cells and human primary neural progenitor cells were used, as described previously. […] 13:e1006411 (2017), which are hereby incorporated by reference in their entirety. All experiments were performed in triplicates.
A viral plaque reduction assay was performed next to evaluate the antiviral efficacy of these derivatives. Human lung carcinoma A549 cells were infected with DENV2 in the presence of a concentration series of derivatives or a dimethyl sulfoxide (DMSO) control, and viral titers were measured at 48 hrs post-infection, as described previously.

[2] = WST-8 cell proliferation cytotoxicity assay; type: cell-based, human; conditions: human
Method: (§1) Cytotoxicity Assay. […] All experiments were performed in triplicates.
(§2) To address this concern, next the compound cytotoxicity CC50 was measured using a WST-8 cell proliferation assay, as described previously.

DENV2 NS2B-NS3 protease = target: T2, DENV2 NS2B-NS3 protease (Dengue virus type 2, UniProt P29990); assay: Protease inhibition assay (FRET peptide substrate); type: biochemical, Dengue virus serotype 2
T2 construct: made in house
T2 sequence (P29990 1476-1654): as above
Method: Protease Inhibition Assay. The protease inhibition assay was performed using the refolded DENV2 NS3 fusion protein (50 nM) and a fluorescence resonance energy transfer (FRET) peptide substrate (100 μM) (Abz-RRRRSAG-nTyr (NeoBiolab)), as described previously. […] 13:e1006411 (2017); and Lang et al., “Analysis of Protein-Protein Interactions by Split Luciferase Complementation Assay,” Curr. Protoc. Toxicol. 82:e (2019), all of which are hereby incorporated by reference in their entirety. Substrate cleavage was monitored at excitation/emission wavelengths of 360 nm/420 nm (Abz substrate) by a BioTek Flx800. The rate of increase in relative fluorescence unit (RFU) over time was calculated in the linear range and normalized as a percent of the DMSO control. The IC50/CC50/EC50 was determined by fitting the dose-responsive curve with a non-linear regression function using the GraphPad Prism 8 (San Diego, Calif.). All experiments were performed in triplicates.
Next, the inhibition efficacy of these positive derivatives were evaluated against the viral NS2B-NS3 protease function as previously described. […] Previously, two versions of the NS3 protease were generated, the NS3 protease domain refolded from inclusion bodies and a soluble version of the NS3 protease domain fused to maltose-binding protein (MBP). […]

Aqueous solubility = type: physicochemical
[3] = not told
A549 cells = assay: WST-8 cell proliferation cytotoxicity assay; type: cell-based, human; conditions: Table 4, preliminary SAR, A549 cells; read-out: CC50
Method: as §1, §2

[4] = Pharmacokinetics in B6 mice after oral gavage
Text: Pharmacokinetics. […] Fan et al., “Contributions of Hepatic and Intestinal Metabolism to the Disposition of Niclosamide, a Repurposed Drug with Poor Bioavailability,” Drug Metab. Dispos. 47:756-763 (2019), which is hereby incorporated by reference in its entirety. […] Student's t-test was used. P values<0.05 were considered statistically significant.

DENV2 replicon = DENV2 replicon assay in BHK-21 cells (Renilla luciferase); type: cell-based, Dengue virus serotype 2; conditions: Dengue virus, BHK-21 replicon cells, 48 hours, read-out: EC50-DN2 (DENV2 replicon)
Method: DENV2 Replicon Assay. […] The cells were incubated at 37° C. in a humidified incubator with 5% CO2 for hrs in a 100 μl medium containing Minimal Essential Medium (MEM) supplemented with 10% fetal bovine serum (FBS), 100 I.U./ml penicillin, 100 g/ml streptomycin, and 300 μg/ml G418. Upon 24 hrs incubation, culture medium was discarded. Fresh culture medium of 100 μl with a concentration series of compounds or DMSO control was added to the cells in triplicates. The culture was further incubated for 48 hours. The cells were then washed twice with 100 μl phosphate-buffered saline (PBS), followed by addition of 25 μl of a lysis buffer containing 1×PBS and 1% Triton X-100. The mixture was incubated at room temperature with gentle shaking (50 rpm) for 30 minutes. Assay buffer (125 μl) containing 1×PBS, 0.05% (3-((3-cholamidopropyl) dimethylammonio)-1-propanesulfonate) (CHAPS), and 0.1% BSA was then added to each well. In the meantime, a fresh 4× working substrate coelenterazine was prepared by diluting 1 μl of stock coelenterazine (2.4 mM) dissolved in ethanol into 10 ml assay buffer (10,000-fold dilution). […] The luminescence was recorded immediately using the Veritas luminometer. The luminescence data was normalized to DMSO control. The EC50 was determined by nonlinear regression fitting of normalized experimental data in GraphPad Prism 8.0 (San Diego, Calif.). […]

in vitro = conditions: not told, Perme. (cell permeability)
[5] = Zika virus, A549, read-out: EC50-ZK (A549)
[6] = Dengue virus, DENV2, A549 cells, 48 hrs post-infection, read-out: EC50-DN2 (A549)
[7] = A549 cells, read-out: CC50 (A549)
[8] = refolded NS3, read-out: IC50-pro (DN2)
[9] = Zika virus, A549, read-out: EC50-ZK
[10] = Dengue virus, DENV2, Table 4, preliminary SAR, A549 cells, read-out: EC50-DN2
[11] = Table 4, preliminary SAR, A549 cells, read-out: EC50-ZK
[12] = Table 4, preliminary SAR, A549 cells, read-out: EC50-DN2
[13] = Table 4, preliminary SAR, read-out: IC50-pro(DN2)
[14] = female, B6, mouse, in vivo, po, 40 mg/kg

SMILES | EC50 (ZIKV; [5]) | IC50 [1] | EC50 (DENV2; [6]) | CC50 [2, 7] | IC50 (DENV2 NS2B-NS3 protease; [8]) | logP (LogP) | EC50 (ZIKV; [9]) | EC50 (DENV2; [10]) | also measured
O=C(Nc1ccc([N+](=O)[O-])cc1Cl)c1cc(Cl)ccc1OCCN1CCOCC1 [HJC0114] | > 30 µM | 18.4 µM | > 30 µM | > 200 µM | 33.6 µM |  |  |  | 
O=C(Nc1ccc([N+](=O)[O-])cc1Cl)c1cc(Cl)ccc1OC1CCNCC1 [HJC0125] | 0.15 µM | 16.3 µM | 0.21 µM | 50.2 µM | 44.5 µM |  |  |  | 
Nc1ccc(NC(=O)c2cc(Cl)ccc2O)c(Cl)c1 [HJC0129] | > 30 µM | 9.6 µM | > 30 µM | 176 µM | 11.3 µM | 2.76 | > 30 µM | > 30 µM | 
CC(=O)Nc1ccc(NC(=O)c2cc(Cl)ccc2O)c(Cl)c1 [HJC0140] | > 30 µM |  | > 30 µM |  |  | 2.47 | > 30 µM | > 30 µM | 
O=C(Nc1ccc2c(c1)S(=O)(=O)C=C2)c1cc(Cl)ccc1O [HJC0149] | 1.1 µM | 18.6 µM | 0.9 µM | 241 µM | 20.3 µM | 2.41 | 1.1 µM | 0.9 µM | 
NCCCOc1ccc(Cl)cc1C(=O)Nc1ccc([N+](=O)[O-])cc1Cl [HJC0308] | 6.2 µM | 4.9 µM | 1.4 µM | 17.7 µM | 39.7 µM |  |  |  | 
CN1CCN(CCOc2ccc(Cl)cc2C(=O)Nc2ccc([N+](=O)[O-])cc2Cl)CC1 [HJC0365] | 6 µM | 13.2 µM | 6.4 µM | 177 µM | > 60 µM |  |  |  | 
CN1CCC(Oc2ccc(Cl)cc2C(=O)Nc2ccc([N+](=O)[O-])cc2Cl)CC1 [HJC0381] | 3.9 µM | 10.8 µM | 1.2 µM | 91.1 µM | 25.9 µM | 2.38 | 3.9 µM | 1.2 µM | aqueous solubility (Aqueous solubility): significantly improves the aqueous solubility
CC[C@H](N)COc1ccc(Cl)cc1C(=O)Nc1ccc([N+](=O)[O-])cc1Cl [HJC0390] | < 0.1 µM | 6 µM | 0.43 µM | 30.1 µM | 46.5 µM |  |  |  | 
NCCCCOc1ccc(Cl)cc1C(=O)Nc1ccc([N+](=O)[O-])cc1Cl [HJC0431] | 0.36 µM | 3.1 µM | 2.2 µM | 28.4 µM | 34 µM | 3.9 | 0.36 µM | 2.2 µM | aqueous solubility (Aqueous solubility): significantly improves the aqueous solubility
O=C(NC(Cc1ccccc1)C(=O)Nc1ccc([N+](=O)[O-])cc1Cl)c1cc(Cl)ccc1O (stereo not drawn) [JMX0285] |  |  |  |  |  | 3.84 |  |  | Perme. (cell permeability) [3]: 0.25 ×10⁻⁶ cm/s; EC50 (ZIKV; [11]): 0.3 µM; EC50 (DENV2; [12]): 0.48 µM; CC50 (A549 cells): 16.5 µM; IC50 (DENV2 NS2B-NS3 protease; [13]): 5.7 µM
O=C(Nc1ccc(C(F)(F)F)cc1Cl)c1cc(Cl)ccc1O [JMX0308] |  |  |  |  |  | 4.49 |  |  | Perme. (cell permeability) [3]: 0.27 ×10⁻⁶ cm/s; EC50 (ZIKV; [11]): 0.12 µM; EC50 (DENV2; [12]): 0.09 µM
O=C(Nc1cc(F)cc(C(F)(F)F)c1)c1cccc([N+](=O)[O-])c1O [JMX0317] |  |  |  |  |  | 3.26 |  |  | Perme. (cell permeability) [3]: 2.9 ×10⁻⁶ cm/s; EC50 (ZIKV; [11]): 0.12 µM; EC50 (DENV2; [12]): 0.2 µM; CC50 (A549 cells): 20.4 µM; IC50 (DENV2 NS2B-NS3 protease; [13]): 8.4 µM
CC(=O)Oc1ccccc1C(=O)Nc1ncc([N+](=O)[O-])s1 [NTZ, nitazoxanide, reference compound] |  |  |  |  |  |  |  | 0.3 µM | EC50 (ZIKV; Zika virus, Table 4, preliminary SAR, A549 cells, read-out: EC50-ZK): 1.5 µM; logP (physchem): 2.14; CC50 [2]: 77 µM
O=C(Nc1ccc([N+](=O)[O-])cc1Cl)c1cc(Cl)ccc1O [Niclosamide, reference compound] | 0.48 µM | 2 µM |  |  |  |  | 0.48 µM |  | T1/2 ± S.D. ([4]; B6 mice, single oral dose 40 mg/kg, plasma): 4.6 ± 1.0 h; AUC0→∞ ± S.D. [4, 14]: 3.5 ± 0.8; Cmax [4, 14]: 600 nM; Tmax ± S.D. [4, 14]: 0.7 ± 0.4 h; logP (physchem): 3.38; EC50 (DENV2; Dengue virus, DENV2, A549, 48 h, read-out: EC50-DN2 (A549)): 0.55 µM; CC50 (A549 cells): 4.8 µM; EC50 (DENV2 replicon): 2 µM; Papp (in vitro): 0.25 ×10⁻⁶ cm/s
